Source: US20040142887A1, “Antigen-polymer compositions” (priority 2002, published 2004)
≈ marks a conversion by molar mass, not a printed value.

Columns and labels:
[1] = not given; remark: listed apart in the source

CC[C@H](C)[C@H](NC(=O)CNC(=O)[C@@H](NC(=O)[C@H](Cc1ccccc1)NC(=O)[C@H](CCCCN)NC(=O)[C@H](CO)NC(=O)[C@H](CC(N)=O)NC(=O)[C@H](C)NC(=O)[C@H](CCCCN)NC(=O)[C@@H](NC(=O)[C@H](Cc1ccc(O)cc1)NC(=O)[C@H](CCC(N)=O)NC(=O)[C@@H](N)CS)[C@@H](C)CC)[C@@H](C)CC)C(=O)N[C@H](C(=O)N[C@@H](CCC(=O)O)C(=O)N[C@@H](CC(C)C)C(=O)N[C@@H](CC(=O)O)C(=O)N[C@@H](CC(=O)O)C(=O)N1CCC[C@H]1C(=O)N[C@@H](CCCNC(=N)N)C(=O)N[C@@H](Cc1ccccc1)C(=O)N[C@@H](CCC(N)=O)C(=O)N[C@@H](CC(=O)O)C(=O)N[C@@H](CO)C(=O)N[C@@H](CO)C(=O)N[C@@H](CO)C(=O)N[C@@H](CO)C(=O)N[C@@H](CCCCN)C(=O)N[C@@H](C)C(=O)N1CCC[C@H]1C(=O)N1CCC[C@H]1C(=O)N1CCC[C@H]1C(=O)N[C@@H](CO)C(=O)N[C@@H](CC(C)C)C(=O)N1CCC[C@H]1C(=O)N[C@@H](CO)C(=O)N1CCC[C@H]1C(=O)N[C@@H](CO)C(=O)N[C@@H](CCCNC(=N)N)C(=O)N[C@@H](CC(C)C)C(=O)N1CCC[C@H]1C(=O)NCC(=O)N1CCC[C@H]1C(=O)N[C@@H](CO)C(=O)N[C@@H](CC(=O)O)C(=O)N[C@H](C(=O)N1CCC[C@H]1C(=O)N[C@H](C(=O)N[C@@H](CC(C)C)C(=O)N1CCC[C@H]1C(=O)N[C@@H](CCC(N)=O)C(=O)O)[C@@H](C)CC)[C@@H](C)O)[C@@H](C)O [CTP37-TT2]
solubility: ~70 mg/mL (≈ 12.8 mM)
stability to hydrolysis in solution ([1]; pH 1): stable to hydrolysis except when the pH was very low (1-2)
peptide remaining soluble at acidic pH ([1]; pH 1.4): all peptides remained soluble
